Where a name gives a salt, the structure may show the parent alone. Each block holds one molecule with its values, some of them ahead of it.
Tests used:
Human A1 receptor = molecular target: T1, Human A1 receptor (Homo sapiens, UniProt P30542); assay: Human A1 receptor binding assay, [3H]DPCPX, CHO cells; conditions: for IC50 / inhibition at 10 µM: [3H]DPCPX 1 nM; for IC50: CHO cells, read-out: hA1 IC50; for inhibition at 10 µM: read-out: hA1 inhibition at 10 μM
T1 construct: expressed in transfected cells; host or cells: CHO cells
T1 sequence (P30542 1-326): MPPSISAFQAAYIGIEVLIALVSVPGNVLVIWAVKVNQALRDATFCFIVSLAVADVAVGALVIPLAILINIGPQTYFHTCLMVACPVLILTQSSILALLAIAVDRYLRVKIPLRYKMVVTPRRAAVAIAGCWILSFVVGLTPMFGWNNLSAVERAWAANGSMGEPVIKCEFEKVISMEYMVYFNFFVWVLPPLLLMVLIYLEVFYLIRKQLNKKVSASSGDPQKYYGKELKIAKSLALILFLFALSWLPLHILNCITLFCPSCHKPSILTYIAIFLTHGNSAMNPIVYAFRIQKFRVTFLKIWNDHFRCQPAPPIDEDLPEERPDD
Protocol: Compounds of the invention were evaluated in binding assays following procedure described by Townsend-Nicholson and Schofield (J. Biol. Chem. (1994), 269:2373-2376). Human A1 receptors were used in CHO cells with [^3H]DPCPX (1 nM) as radioligand, DPCPX (1 μM) for non-specific binding and 60 minutes of incubation at 22° C.

Human A2A receptor = molecular target: T2, Human A2A receptor (Homo sapiens, UniProt P29274); assay: Human A2A receptor binding assay, [3H]CGS 21680, HEK-293 cells; conditions: for IC50 / inhibition at 10 µM: [3H]CGS 21680 6 nM; for IC50: HEK-293 cells, read-out: hA2A IC50; for inhibition at 10 µM: read-out: hA2A inhibition at 10 μM
T2 construct: expressed in transfected cells; host or cells: HEK-293 cells
Protocol: Compounds of the invention were evaluated in binding assays following procedure described by Luthin et al. (Mol. Pharmacol. (1995), 47:307-313). Human A2A receptors were used in HEK-293 cells with [^3H]CGS 21680 (6 nM) as radioligand, NECA (10 μM) for non-specific binding and 90 minutes of incubation at 22° C.

Human A2B receptor = molecular target: T3, Human A2B receptor (Homo sapiens, UniProt P29275); assay: Human A2B receptor binding assay, [3H]MRS1754, HEK-293 cells; conditions: for IC50: [3H]MRS1754 0.5 nM, HEK-293 cells, read-out: hA2B IC50
T3 construct: expressed in transfected cells; host or cells: HEK-293 cells
T3 sequence (P29275 1-332): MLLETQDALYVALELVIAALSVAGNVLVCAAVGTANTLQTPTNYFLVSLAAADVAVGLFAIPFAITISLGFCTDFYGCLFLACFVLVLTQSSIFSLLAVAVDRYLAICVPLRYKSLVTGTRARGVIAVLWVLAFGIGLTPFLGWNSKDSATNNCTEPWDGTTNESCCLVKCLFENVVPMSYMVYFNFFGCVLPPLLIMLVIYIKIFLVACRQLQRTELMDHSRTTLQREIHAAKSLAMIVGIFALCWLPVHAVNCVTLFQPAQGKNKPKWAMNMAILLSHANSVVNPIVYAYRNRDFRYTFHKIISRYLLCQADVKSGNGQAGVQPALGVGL
Protocol: Compounds of the invention were evaluated in binding assays following procedure described by Stehle et al. (Mol. Endocrinol. (1992), 6:384-393). Human A2B receptors were used in HEK-293 cells with [^3H]MRS1754 (0.5 nM) as radioligand, NECA (1 μM) for non-specific binding and 120 minutes of incubation at 22° C.

Human A3 receptor [1] = molecular target: T4, Human A3 receptor (Homo sapiens, UniProt P0DMS8); assay: Human A3 receptor binding assay, [125I]AB-MECA, HEK-293 cells; set-up: expressed in transfected cells; conditions: [125I]AB-MECA 0.15 nM; for IC50: HEK-293 cells, read-out: hA3 IC50; for inhibition at 1 µM: read-out: hA3 inhibition at 1 μM (of specific binding)
T4 sequence (P0DMS8 1-318): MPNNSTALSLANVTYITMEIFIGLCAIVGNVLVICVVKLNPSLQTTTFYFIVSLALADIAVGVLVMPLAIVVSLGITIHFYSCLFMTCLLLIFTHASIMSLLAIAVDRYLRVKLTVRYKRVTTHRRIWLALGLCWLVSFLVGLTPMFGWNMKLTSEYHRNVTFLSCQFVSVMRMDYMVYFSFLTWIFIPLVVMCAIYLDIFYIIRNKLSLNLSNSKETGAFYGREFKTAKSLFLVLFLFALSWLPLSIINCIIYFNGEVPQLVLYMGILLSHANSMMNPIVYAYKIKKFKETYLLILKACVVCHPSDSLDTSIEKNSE
Protocol: Compounds of the invention were evaluated in binding assays following procedure described by Salvatore et al. (Proc. Natl. Acad. Sci. (1993), 90:10365-10369). Human A3 receptors were used in HEK-293 cells with [^125I]AB-MECA (0.15 nM) as radioligand, IB-MECA (1 μM) for non-specific binding and 90 minutes of incubation at 22° C.

Human A3 receptor [2] = molecular target: T4, Human A3 receptor; assay: Functional assay on human A3 receptor: forskolin-stimulated cAMP in CHO cells; assay type: cell-based; set-up: expressed in transfected cells; host or cells: CHO cells; conditions: for cAMP levels: forskolin 10 μM, example 1 10 μM, Cl-IB-MECA 0.1 μM, Basal 0, Forskolin 100
Protocol: CHO cells expressing the human A3 receptor were grown overnight as a monolayer in 24 well tissue culture plates (400 μl/well; 2×10^5 cells/well). cAMP generation was performed in Dulbecco's modified Eagle's medium (DMEM)/N-2-hydroxyethylpiperazin-N-2-ethansulfonic acid (HEPES) buffer (0.60 g HEPES/50 ml DMEM pH 7.4). Each well was washed twice with HEPES/DMEM buffer (250 μl), and the following added: rolipram (50 μM) and cilostamide (50 μM). This was incubated for 30 min at 37° C. followed by the introduction of the compound of example 1 (10 μM) and Cl-IB-MECA (0.1 μM) or DMEM/HEPES. After a further 10 min of incubation, forskolin was added (10 μM). After a subsequent 15 min, incubation was stopped by aspirating the assay medium and by adding 200 μl of ice-cold 0.1M HCl. The amount of cAMP was determined by competition with [3H]cAMP for protein kinase A (PKA). Briefly, the sample, approximately 1.8 nM [3H]cAMP, and 100 μl of PKA solution were incubated on ice for at least 2.5 h. The incubations were stopped by rapid dilution with 2 ml of icecold Tris HCl buffer (pH 7.4), and bound radioactive material was then recovered by filtration through Whatman GF/C filters. Filters were additionally rinsed with 2×2 ml of Tris HCl buffer, and then the radioactivity was counted in Packard Emulsifier Safe scintillation fluid (3.5 mL). All data reflect three independent experiments.

T2 sequence (P29274 whole entry): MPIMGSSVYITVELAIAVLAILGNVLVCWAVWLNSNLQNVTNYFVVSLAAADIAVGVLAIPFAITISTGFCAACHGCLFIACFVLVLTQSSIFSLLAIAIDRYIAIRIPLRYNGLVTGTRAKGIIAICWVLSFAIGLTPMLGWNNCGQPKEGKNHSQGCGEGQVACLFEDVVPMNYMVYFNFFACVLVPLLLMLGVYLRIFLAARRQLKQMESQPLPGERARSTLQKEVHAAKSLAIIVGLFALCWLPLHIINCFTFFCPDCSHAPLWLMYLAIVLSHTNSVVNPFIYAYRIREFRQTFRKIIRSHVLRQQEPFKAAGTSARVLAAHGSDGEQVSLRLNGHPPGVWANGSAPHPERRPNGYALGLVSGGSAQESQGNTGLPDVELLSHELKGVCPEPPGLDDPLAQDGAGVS

melting point: 299 to 301 °C
Compound: CCNc1nc2ccccc2n2cc(-c3ccccc3)cc12.Cl

melting point: 346 °C
Compound: O=c1[nH]c2ccc(Cl)cc2n2cc(-c3ccccc3)cc12 [Example 13, 8-Chloro-2-phenyl-5H-pyrrolo[1,2-a]quinoxalin-4-one]

IC50 (Human A1 receptor): 8.4 µM | IC50 (Human A2A receptor): > 10 µM | IC50 (Human A2B receptor): > 10 µM | IC50 (Human A3 receptor [1]): 0.011 µM
Compound: CN1CCN(c2ccc3[nH]c(=O)c4cc(-c5ccccc5)cn4c3c2)CC1 [Example 14, 8-(4-Methyl-piperazin-1-yl)-2-phenyl-5H-pyrrolo[1,2-a]quinoxalin-4-one]

melting point: 132 °C
Compound: CSc1nc2ccccc2n2cc(-c3ccccc3)cc12 [Example 9, 4-Methylsulfanyl-2-phenyl-pyrrolo[1,2-a]quinoxaline]

melting point: 327 to 332 °C | inhibition at 1 µM (Human A3 receptor [1]): 82%
Compound: COc1ccc(-c2cc3c(=O)[nH]c4ccccc4n3c2)cc1 [Example 2, 2-(4-Methoxy-phenyl)-5H-pyrrolo[1,2-a]quinoxalin-4-one]

melting point: 126 °C
Compound: c1ccc(CCNc2nc3ccccc3n3cc(-c4ccccc4)cc23)cc1 [Example 7, Phenethyl-(2-phenyl-pyrrolo[1,2-a]quinoxalin-4-yl)-amine]

melting point: 172 °C
Compound: c1ccc(Nc2nc3ccccc3n3cc(-c4ccccc4)cc23)cc1 [Example 3, Phenyl-(2-phenyl-pyrrolo[1,2-a]quinoxalin-4-yl)-amine]

inhibition at 10 µM (Human A1 receptor): 54% | inhibition at 10 µM (Human A2A receptor): 57% | IC50 (Human A2B receptor): > 10 µM | melting point: 190 to 200 °C | IC50 (Human A3 receptor [1]): 0.0035 µM
Compound: O=C(O)C(F)(F)F.O=c1[nH]c2ccc(OCCN3CCOCC3)cc2n2cc(-c3ccccc3)cc12 [Example 17, 8-(2-Morpholin-4-yl-ethoxy)-2-phenyl-5H-pyrrolo[1,2-a]quinoxalin-4-one, trifluoroacetic acid salt]

inhibition at 10 µM (Human A1 receptor): 53% | inhibition at 10 µM (Human A2A receptor): 69% | IC50 (Human A2B receptor): > 10 µM | IC50 (Human A3 receptor [1]): 0.0031 µM
Compound: O=c1[nH]c2ccc(NCCCN3CCOCC3)cc2n2cc(-c3ccccc3)cc12 [Example 15, 8-(3-Morpholin-4-yl-propylamino)-2-phenyl-5H-pyrrolo[1,2-a]quinoxalin-4-one, trifluoro-acetic acid salt]

IC50 (Human A1 receptor): > 10 µM | affinity on A1 (in words) (Human A1 receptor; up to 10 μM): no detectable affinity | IC50 (Human A2A receptor): > 10 µM | affinity on A2A (in words) (Human A2A receptor; up to 10 μM): no detectable affinity | IC50 (Human A2B receptor): > 1 µM | affinity on A2B (in words) (Human A2B receptor; up to 1 μM): no detectable affinity | melting point: 301 to 303 °C | IC50 (Human A3 receptor [1]): 0.0093 µM | mode of action at A3 receptor (prevents cAMP-decrease evoked by Cl-IB-MECA) (Human A3 receptor [2]; example 1 10 μM vs Cl-IB-MECA 0.1 μM): antagonist | cAMP levels (Human A3 receptor [2]; n = 1): 150.133 | cAMP levels (Human A3 receptor [2]; n = 2): 130.150 | cAMP levels (Human A3 receptor [2]; n = 3): 104.510
Compound: O=c1[nH]c2ccccc2n2cc(-c3ccccc3)cc12 [Example 1, 2-Phenyl-5H-pyrrolo[1,2-a]quinoxalin-4-one]

inhibition at 10 µM (Human A1 receptor): 53% | IC50 (Human A2A receptor): > 10 µM | IC50 (Human A2B receptor): > 10 µM | inhibition at 1 µM (Human A3 receptor [1]): 90%
Compound: O=c1[nH]c2ccc(N3CCOCC3)cc2n2cc(-c3ccccc3)cc12 [Example 11, 8-Morpholin-4-yl-2-phenyl-5H-pyrrolo[1,2-a]quinoxalin-4-one, trifluoroacetic acid salt]

melting point: 314 to 315 °C
Compound: Cc1ccc2[nH]c(=O)c3cc(-c4ccccc4)cn3c2c1 [Example 12, 8-Methyl-2-phenyl-5H-pyrrolo[1,2-a]quinoxalin-4-one]

inhibition at 1 µM (Human A3 receptor [1]): 32%
Compound: CN(C)c1ccc(-c2cc3c(=O)[nH]c4ccccc4n3c2)cc1 [Example 10, 2-(4-Dimethylamino-phenyl)-5H-pyrrolo[1,2-a]quinoxalin-4-one, trifluoroacetic acid salt]

melting point: 109 to 111 °C
Compound: CN(C)c1nc2ccccc2n2cc(-c3ccccc3)cc12 [Example 6, Dimethyl-(2-phenyl-pyrrolo[1,2-a]quinoxalin-4-yl)-amine]
